Values quoted from earlier work as cited in patent US20200368246A1, “COMBINATION THERAPY TARGETING CANCER ASSOCIATED WITH THE HEDGEHOG PATHWAY” (priority 2017, published 2020).
Like-named read-outs stand apart in the source and are kept apart here.

Columns and labels:
[1] = system: advanced and metastatic basal cell carcinoma; settings: monotherapy
[2] = for patients who experience treatment-emergent adverse events: monotherapy at recommended dose; for patients who experienced adverse side effects: muscle spasms, alopecia, taste loss, weight loss, fatigue
[3] = system: basal cell carcinoma; settings: patient
[4] = nineteen patients; grade 2 fatigue and grade 4 congestive heart failure
[5] = metastatic basal cell carcinoma

Molecule	mean time for secondary resistance [1]	treated patients with secondary resistance [1] [%]	response rate ([1]; advanced basal cell carcinoma) [%]	response rate [1, 5] [%]	patients who experience treatment-emergent adverse events [2]	patients who had to discontinue treatment due to toxic effects ([2]; monotherapy trial) [%]	patients who experienced adverse side effects ([2]; monotherapy trial) [%]	effectiveness ([3]; 3 cycles)	patients with severe grade 3 or 4 adverse reactions ([2]; monotherapy trial) [%]	tumor shrinkage ([3]; clinical trial, within the first several months) [%]	tumor outcome on second course ([3]; placed back on the drug after radiation)	adverse events associated with treatment [4]
Cc1c(C(=O)Nc2ccc(N3C[C@@H](C)O[C@@H](C)C3)nc2)cccc1-c1ccc(OC(F)(F)F)cc1 [Odomzo®, sonidegib]	about 52 weeks	21	47	17.4	Ninety-five to one hundred percent	22	32	–	–	–	–	–
pembrolizumab [Keytruda]	–	–	–	–	–	–	–	failed to show effectiveness	–	–	–	–
CS(=O)(=O)c1ccc(C(=O)Nc2ccc(Cl)c(-c3ccccn3)c2)c(Cl)c1 [Erivedge®, vismodegib]	about 52 weeks	21	43	30	Ninety-five to one hundred percent	–	33	–	25	70	the tumor developed resistance to the drug	–
CCC(C)n1ncn(-c2ccc(N3CCN(c4ccc(OCC5COC(Cn6cncn6)(c6ccc(Cl)cc6Cl)O5)cc4)CC3)cc2)c1=O (stereo not drawn) [itraconazole]	–	–	–	–	–	–	–	–	–	–	–	two adverse events
